# Assay results taken from patent publication US6784153B1, “Methods of homing molecules to lung using membrane dipeptidase” (The Burnham Institute, priority 1998, dated 2004).
# Experiments:
# MDP [1] = target: T1, MDP (Mus musculus, UniProt P31428); experiment: inhibition of MDP activity (hydrolysis of Gly-D-Phe, fluorimetric); assay type: biochemical, murine; conditions: Gly-D-Phe 0.5 mM; extracts from MDP-expressing COS-1 cells
# T1 construct: The amplified 1.3 kb murine MDP cDNA was digested with KpnI and XbaI, and inserted into the same sites of the pcDNA3 expression vector; expressed in transfected cells; host or cells: COS-1 cells, pcDNA3 expression vector
# T1 sequence (P31428 17-384): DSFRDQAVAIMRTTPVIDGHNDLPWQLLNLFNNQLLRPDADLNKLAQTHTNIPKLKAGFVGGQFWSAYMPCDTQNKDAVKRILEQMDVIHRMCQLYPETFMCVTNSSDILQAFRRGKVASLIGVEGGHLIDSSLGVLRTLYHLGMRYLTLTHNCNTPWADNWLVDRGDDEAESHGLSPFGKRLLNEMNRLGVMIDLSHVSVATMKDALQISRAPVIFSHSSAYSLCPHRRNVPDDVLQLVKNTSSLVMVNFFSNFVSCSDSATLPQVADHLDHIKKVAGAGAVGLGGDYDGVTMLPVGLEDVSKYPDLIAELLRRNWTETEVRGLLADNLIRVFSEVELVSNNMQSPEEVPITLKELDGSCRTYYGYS
# Experimental: […] […] Fluorescence was measured using an fmax fluorescence microplate reader from Molecular Devices (Sunnyvale, Calif.).
# Phage binding to COS-1 cells transfected with MDP was determined as follows. Briefly, 10^7 COS-1 cells were transfected with 10 μg of either the MDP expression vector or the vector alone. After 48 hours, cells were scraped gently from the dish, washed once, and subjected to the phage binding assay or membrane dipeptidase activity assay described above. For the phage binding assay, 5×10^6 cells and 10^10 transducing units (TU) of phage input were used. For measurement of membrane dipeptidase activity, 10^6 cells were lysed in 100 μl of PBS/octylglycoside without protease inhibitors. A 10 μl aliquot of the extract was used to measure MDP activity.
# Fluorimetric detection of D-Phe was performed as described above.
# [2] = test system: C8161 human melanoma cells
# MDP [3] = conditions: cited from earlier work
# lung primary cells = experiment: phage binding assay on lung primary cells; set-up: species or system mice; conditions: 150 μM peptide
# Experimental: Phage binding to primary cells was performed as follows. Briefly, Balb/c mice (Harlan Sprague Dawley) were anesthetized with 0.017 ml/g of Avertin as described in Gardner et al., Lab. […] Under deep anesthesia, mice were perfused through the heart with 10 ml Dulbecco's modified Eagle's medium (DMEM; Irvine Scientific; Santa Ana, Calif.). The lungs, kidneys and brain were then collected, minced, placed in 2 ml of DMEM containing 0.5% BSA (Intergen; Purchase, N.Y.) and 0.5 μg/ml collagenase V (SIGMA) and incubated at 37° C. for 25 minutes. Following collagenase treatment, the tissue was forced through a […] pore cell strainer (Becton Dickinson; Franklin Lake, N.J.). The filtered cells were washed once with 10 ml DMEM supplemented with 10% serum.
# For the binding reaction, 10^9 transducing units (TU) of phage were incubated with 5×10^6 cells in 1 ml DMEM supplemented with 10% serum. The binding was performed at 4° C. for 2 hours with gentle agitation. After the binding reaction, the cells were washed four times with 1 ml of DMEM supplemented with 10% serum at room temperature for 5 to 10 minutes each time. The cells were centrifuged, and the cell pellet resuspended in 100 μl of DMEM and transferred to a new tube. […] The bacteria were then diluted in 10 ml of LB culture media supplemented with 0.2 μg/ml tetracycline, and incubated for another 30 minutes at room temperature. Serial dilutions of the bacterial culture were plated on LB plates containing 40 μg/ml tetracycline. Plates were incubated at 37° C. overnight before the colonies were counted (transducing units, TU).
# [4] = target: T2, 55 kDa lung vascular surface protein (Mus musculus, UniProt P31428); experiment: peptide affinity chromatography of in vivo biotinylated lung extract; assay type: binding; conditions: elution with GFE-1 peptide
# T2 construct: from tissue; host or cells: Balb/c mouse lung, in vivo biotinylated, octylglucoside extract
# T2 sequence (P31428 17-384): T1 sequence (P31428 17-384)
# Experimental: In vivo biotinylation of endothelial cell surface proteins was performed as previously described in De La Fuente et al., Am. J. Physiol. […] Briefly, Balb/c mice were anesthetized with Avertin and perfused slowly through the heart for 10 to 15 minutes with approximately 15 ml of PBS containing 0.5 mg/ml of sulfo-NHS-LC-biotin (Pierce; Rockford, Ill.). Well perfused lungs or control tissues such as brain were then collected and incubated on ice for 20 minutes. The tissues were then homogenized for preparation of extracts as described further below.
# For preparation of extracts, mouse or rat lungs were first minced and then homogenized with a Brinkman homogenizer (Brinkman; Wesbury, N.Y.) in a minimal volume (2.5 ml/g of tissue) of cold PBS containing 100 mM N-octyl-β-D-glucopyranoside (Calbiochem; La Jolla, Calif.) with 1 mM phenylmethylsulfonyl fluoride (PMSF), 20 μg/ml aprotinin and 1 μg/ml leupeptin (PBS/octylglucoside). The homogenized tissue was incubated on ice for 2 hours, and then centrifuged at 12,000×g for 30 minutes to remove cell debris. The pooled supernatants were cleared of any debris prior to affinity chromatogaphy.
# All steps were performed at 4° C. […] The matrix contained approximately 2 mg/ml of peptide. […] The extract was applied to the column, and the flow-through re-applied over a period of 90 minutes. The column was then washed with 20 volumes of column buffer. […]
molecule,measurement,setting,value
"O=c1[nH]cc(F)c(=O)[nH]1 [CARAC, reference compound]",inhibition of hydrolysis of Gly-D-Phe by MDP,MDP [1],did not inhibit the enzyme
same,toxicity to the melanoma cells,[2],Neither the GFE-1 (SEQ ID NO: 1) or CARAC (SEQ ID NO: 443) peptides exhibited toxicity
"CCCCC/C=C(\NC(=O)C1CC1(C)C)C(=O)O (racemic) [Z-2-(2,2 dimethylcyclopropanecarboxamido)-2-octenoic acid]",activity of resolved isomers,MDP [3],Activity resides in the dextrorotatory isomer
GRGESP: control peptide [reference compound],inhibition of GFE-1 phage binding to lung cells,lung primary cells,no effect
same,binding of lung surface protein to peptide affinity column,[4],No proteins in the 55 kDa range were detected
